From US20070155802A1, “Fungicide composition comprising an arylamidine derivative and known fungicide compounds” (priority 2004, published 2007)

Tests used:
[1] = test system: Wheat Powdery Mildew (Erysiphe graminis or blumeria graminis); assay: Open field trial on wheat, wheat powdery mildew, natural contamination; format: in vivo; conditions: 20 days after application 2, BBCH73
Method: (§1) They are intended to give an illustration of the efficacy of the composition according to the invention on several cereal diseases, in particular a composition combining compound (A), having as chemical name N-ethyl-N-methyl-N′-[4-(chloro-3-trifluoromethylphenoxy)-2,5-xylyl]formamidine, with a fungicide compound of the triazole type, namely prothioconazole. The trials on cereals were carried out in an open field.
(§2) The objective of these field trials is therefore to test the efficacy of compounds (A), alone at 100 g/ha; 125 g/ha and 150 g/ha in combination with prothioconazole at 150 g a.i./ha; representing a class of fungicide compounds. Powdery mildew (Erysiphe graminis or blumeria graminis) and Septoria diseases (Mycosphaerella graminicola or Septoria tritici) are the principal diseases treated.
(§3) The products tested are therefore • N-ethyl-N-methyl-N′-[4-(chloro-3-trifluorométhylphénoxy)-2,5-xylyl]-formamidine as compound (A) at 100 g/ha; 125 g/ha and 150 g/ha as an EC type formulation at 150 g/l; • prothioconazole as compound (B) at 150 g/ha as a formulation at 250 g/l; • compound (A) and prothioconazole combination at 100+150 g/ha as a fresh preparation; • compound (A) and prothioconazole combination at 125+150 g/ha as a fresh preparation; • compound (A) and prothioconazole combination at 150+150 g/ha as a fresh preparation; • the reference product is a mixture of epoxyconazole and pyraclostrobin (Opera® 1,51/ha recommended on Septoria tritici).
(§4) Each trial comprises 3 repeats.
(§5) Untreated control plots are included in the experimental design in order to measure the severity of the diseases.
The trials were conducted under natural contamination conditions. The equipment for application of the different active ingredients is a constant compressed air pressure back sprayer. The spray nozzles have slits. […]
The results were measured 20 days after the second application of the products onto wheat and are presented in table 2; for Erysiphe graminis, assessment 20 days after application 2 at stage BBCH73 by observations of Flag leaf-Flag-1-Flag-2.

[2] = test system: Wheat Leaf-spot (Septoria tritici or Mycosphaerella graminicola); assay: Open field trial on wheat, wheat leaf-spot, natural contamination; format: in vivo; conditions: 30 days after application 2, BBCH73
Method: as §1, §2, §3, §4, §5
The trials were conducted under natural contamination conditions. The equipment for application of the different active ingredients is a constant compressed air pressure back sprayer. The spray nozzles have slits.
The efficacy results were obtained from controls carried out in the field by overall evaluation of the percentage infestation.
The results were measured 30 days after the second application and are presented in table 3; for Septoria tritici, assessment 30 days after application 2 at stage BBCH73 by observations of Flag leaf-Flag-1-Flag-2.

Row | SMILES | % Efficacy observed (X) ([1]; 125 g ai/Ha) | % Efficacy observed (X) ([1]; 150 g ai/Ha) | % Efficacy observed (X) ([2]; 100 g ai/Ha) | % Efficacy observed (X) ([2]; 125 g ai/Ha) | % Efficacy observed (X) ([2]; 150 g ai/Ha)
1 | CCN(C)C=Nc1cc(C)c(Oc2ccc(Cl)c(C(F)(F)F)c2)cc1C [Compound A] | 16% | 14% | 17% | 19% | 24%
2 | OC(Cc1ccccc1Cl)(Cn1nc[nH]c1=S)C1(Cl)CC1 (stereo not shown) [prothioconazole, reference compound] | – | 71% | – | – | 69%
